Measurements reported in ChEMBL document CHEMBL2010768, “Optimization of Potent Inhibitors of P. falciparum Dihydroorotate Dehydrogenase for the Treatment of Malaria” (ACS Med Chem Lett, 2011).

Columns and labels:
[1] = target: Dihydroorotate dehydrogenase (quinone), mitochondrial (Homo sapiens, UniProt Q02127); assay: Inhibition of human DHODH after 20 mins by 2,6-dichloroindophenol-reduction based assay
[2] = Cytotoxicity against human RPTEC after 4 days by alamar blue assay; assay type: cell-based; details: RPTEC cells, read-out: LC50
[3] = target: T1, Dihydroorotate dehydrogenase (Plasmodium falciparum, UniProt Q54A96); assay: Inhibition of Plasmodium falciparum DHODH after 20 mins by 2,6-dichloroindophenol-reduction based assay
T1 sequence (Q54A96 whole entry): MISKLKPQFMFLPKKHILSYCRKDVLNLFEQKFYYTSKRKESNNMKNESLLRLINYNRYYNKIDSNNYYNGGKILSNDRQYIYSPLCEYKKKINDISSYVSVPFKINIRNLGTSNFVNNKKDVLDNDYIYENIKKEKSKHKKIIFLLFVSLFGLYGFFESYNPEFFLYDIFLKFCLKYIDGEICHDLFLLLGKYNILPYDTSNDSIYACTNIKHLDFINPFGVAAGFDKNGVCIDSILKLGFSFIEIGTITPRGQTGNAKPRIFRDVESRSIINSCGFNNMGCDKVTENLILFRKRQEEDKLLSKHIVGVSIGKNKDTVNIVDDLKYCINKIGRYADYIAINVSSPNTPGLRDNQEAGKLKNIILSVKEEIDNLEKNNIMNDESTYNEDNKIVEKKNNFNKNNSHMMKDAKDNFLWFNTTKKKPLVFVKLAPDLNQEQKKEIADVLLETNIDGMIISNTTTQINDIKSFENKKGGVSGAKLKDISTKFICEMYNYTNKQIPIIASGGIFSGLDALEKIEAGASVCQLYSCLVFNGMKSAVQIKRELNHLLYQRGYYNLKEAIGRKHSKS

Plasmodium falciparum [4] = assay: Antiplasmodial activity against Plasmodium falciparum 3D7 infected in […] after 72 hrs by SYBR green assay; assay type: functional, organism-based; details: 3D7, 72 h
Plasmodium falciparum [5] = assay: Antiplasmodial activity against Plasmodium falciparum Dd2 infected in […] after 72 hrs by SYBR green assay; assay type: functional, organism-based; details: Dd2, 72 h

Dihydroorotate dehydrogenase (quinone), mitochondrial, sequence (Q02127 whole entry): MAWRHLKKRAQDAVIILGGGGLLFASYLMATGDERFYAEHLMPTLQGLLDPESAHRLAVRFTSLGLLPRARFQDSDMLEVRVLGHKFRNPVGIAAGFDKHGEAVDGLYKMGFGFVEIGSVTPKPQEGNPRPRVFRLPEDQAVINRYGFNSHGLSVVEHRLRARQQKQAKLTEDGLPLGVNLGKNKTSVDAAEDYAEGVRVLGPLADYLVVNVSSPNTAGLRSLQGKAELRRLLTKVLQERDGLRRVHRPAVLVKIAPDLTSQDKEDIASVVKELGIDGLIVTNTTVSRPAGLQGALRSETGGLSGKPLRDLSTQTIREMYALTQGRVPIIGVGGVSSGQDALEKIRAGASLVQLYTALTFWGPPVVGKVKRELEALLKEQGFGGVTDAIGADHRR

Q: For `CCCNC(=O)c1ccc(-n2cnc3ccccc32)s1`, which IC50 [1] is on record?
A: > 30 µM

Q: And the CC50 at 96 h [2]?
A: > 62 µM

Q: What about the IC50 [3] of the same molecule?
A: 0.7 µM

Q: And the IC50 (Plasmodium falciparum [4])?
A: 0.47 µM

Q: What about the IC50 (Plasmodium falciparum [5]) of the same molecule?
A: 1.1 µM
